Assay results taken from ChEMBL document CHEMBL1201862, “PubChem BioAssay data set” (2004).
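Five concentrations, 48 hours, 96-well plates. GI50 = concentration required for 50% inhibition of growth.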 The source made the active and inactive calls. No stated cut-off is given here; in the data, active = GI50 up to about 1.1 µM and inactive = higher.

Experiments:
Assay in all cases: inhibition of tumour cell growth, NCI panel, 48 h
A549 = system: A549
CAKI-1 = system: CAKI-1
DU-145 = system: DU-145
HT-29 = system: HT-29
Hs-578T = system: Hs-578T
LOX IMVI = system: LOX IMVI
MOLT-4 = system: MOLT-4
NCI-H23 = system: NCI-H23
NCI-H460 = system: NCI-H460
NCI-H522 = system: NCI-H522
OVCAR-5 = system: OVCAR-5
SF-268 = system: SF-268
SF-295 = system: SF-295
SF-539 = system: SF-539
SK-MEL-5 = system: SK-MEL-5
SNB-19 = system: SNB-19
SR = system: SR
SW-620 = system: SW-620
TK-10 = system: TK-10
UACC-62 = system: UACC-62

## O=C(CCBr)N1CCN(C(=O)CCBr)CC1 [PIPOBROMAN]
A549
  GI50: 43.9 µM (inactive)
CAKI-1
  GI50: 47.9 µM (inactive)
DU-145
  GI50: 64.6 µM (inactive)
HT-29
  GI50: 103 µM (inactive)
Hs-578T
  GI50: 190 µM (inactive)
LOX IMVI
  GI50: 48.3 µM (inactive)
MOLT-4
  GI50: 13.4 µM (inactive)
NCI-H23
  GI50: 56.4 µM (inactive)
NCI-H460
  GI50: 11.9 µM (inactive)
NCI-H522
  GI50: 63.2 µM (inactive)
OVCAR-5
  GI50: 103 µM (inactive)
SF-268
  GI50: 39.3 µM (inactive)
SF-295
  GI50: 57.3 µM (inactive)
SF-539
  GI50: 62.5 µM (inactive)
SK-MEL-5
  GI50: 64.1 µM (inactive)
SNB-19
  GI50: 80.2 µM (inactive)
SR
  GI50: 8.04 µM (inactive)
SW-620
  GI50: 89.9 µM (inactive)
TK-10
  GI50: 244 µM (inactive)
UACC-62
  GI50: 18 µM (inactive)

## O=S(=O)(CC(O)C(Cl)(Cl)Cl)NNc1ccccc1 (centres undefined)
A549
  GI50: > 100 µM (inactive)
CAKI-1
  GI50: > 100 µM (inactive)
DU-145
  GI50: > 100 µM (inactive)
HT-29
  GI50: > 100 µM (inactive)
Hs-578T
  GI50: > 100 µM (inactive)
LOX IMVI
  GI50: > 100 µM (inactive)
MOLT-4
  GI50: > 100 µM (inactive)
NCI-H23
  GI50: > 100 µM (inactive)
NCI-H460
  GI50: 75.3 µM (inactive)
NCI-H522
  GI50: > 100 µM (inactive)
OVCAR-5
  GI50: > 100 µM (inactive)
SF-268
  GI50: > 100 µM (inactive)
SF-295
  GI50: 80.7 µM (inactive)
SF-539
  GI50: > 100 µM (inactive)
SK-MEL-5
  GI50: 74.1 µM (inactive)
SNB-19
  GI50: > 100 µM (inactive)
SR
  GI50: > 100 µM (inactive)
SW-620
  GI50: > 100 µM (inactive)
TK-10
  GI50: > 100 µM (inactive)
UACC-62
  GI50: 20.7 µM (inactive)

## CCOC(=O)c1c(N2CCCC2)ncn(C)c1=S
A549
  GI50: > 100 µM (inactive)
CAKI-1
  GI50: > 100 µM (inactive)
DU-145
  GI50: > 100 µM (inactive)
HT-29
  GI50: > 100 µM (inactive)
Hs-578T
  GI50: > 100 µM (inactive)
LOX IMVI
  GI50: > 100 µM (inactive)
MOLT-4
  GI50: > 100 µM (inactive)
NCI-H23
  GI50: > 100 µM (inactive)
NCI-H460
  GI50: > 100 µM (inactive)
NCI-H522
  GI50: > 100 µM (inactive)
OVCAR-5
  GI50: > 100 µM (inactive)
SF-268
  GI50: > 100 µM (inactive)
SF-295
  GI50: > 100 µM (inactive)
SF-539
  GI50: > 100 µM (inactive)
SK-MEL-5
  GI50: > 100 µM (inactive)
SNB-19
  GI50: > 100 µM (inactive)
SR
  GI50: > 100 µM (inactive)
SW-620
  GI50: > 100 µM (inactive)
TK-10
  GI50: > 100 µM (inactive)
UACC-62
  GI50: > 100 µM (inactive)

## CCCCCCCCCCc1c2nc(c(CCCCCCCCCC)c3ccc([nH]3)c(CCCCCCCCCC)c3nc(c(CCCCCCCCCC)c4ccc1[nH]4)C=C3)C=C2
A549
  GI50: > 100 µM (inactive)
CAKI-1
  GI50: > 100 µM (inactive)
DU-145
  GI50: > 100 µM (inactive)
HT-29
  GI50: > 100 µM (inactive)
Hs-578T
  GI50: 30 µM (inactive)
LOX IMVI
  GI50: > 100 µM (inactive)
MOLT-4
  GI50: > 100 µM (inactive)
NCI-H23
  GI50: > 100 µM (inactive)
NCI-H460
  GI50: > 100 µM (inactive)
NCI-H522
  GI50: > 100 µM (inactive)
OVCAR-5
  GI50: > 100 µM (inactive)
SF-268
  GI50: > 100 µM (inactive)
SF-295
  GI50: > 100 µM (inactive)
SF-539
  GI50: > 100 µM (inactive)
SK-MEL-5
  GI50: > 100 µM (inactive)
SNB-19
  GI50: > 100 µM (inactive)
SR
  GI50: > 100 µM (inactive)
SW-620
  GI50: > 100 µM (inactive)
TK-10
  GI50: > 100 µM (inactive)
UACC-62
  GI50: > 100 µM (inactive)

## COc1cc(S(=O)(=O)Nc2ccc(-c3csc(N4C(=O)C(Cl)C4c4ccccc4)n3)cc2)ccc1Cl (centres undefined)
A549
  GI50: > 100 µM (inactive)
CAKI-1
  GI50: > 100 µM (inactive)
DU-145
  GI50: 16 µM (inactive)
HT-29
  GI50: > 100 µM (inactive)
Hs-578T
  GI50: > 100 µM (inactive)
LOX IMVI
  GI50: 2.14 µM (inactive)
MOLT-4
  GI50: 27 µM (inactive)
NCI-H23
  GI50: 25.6 µM (inactive)
NCI-H460
  GI50: < 0.01 µM (active)
NCI-H522
  GI50: 3.14 µM (inactive)
OVCAR-5
  GI50: 47.4 µM (inactive)
SF-268
  GI50: 33.9 µM (inactive)
SF-295
  GI50: > 100 µM (inactive)
SF-539
  GI50: 32.7 µM (inactive)
SK-MEL-5
  GI50: 25.2 µM (inactive)
SNB-19
  GI50: > 100 µM (inactive)
SR
  GI50: 3.06 µM (inactive)
SW-620
  GI50: 50.4 µM (inactive)
TK-10
  GI50: > 100 µM (inactive)
UACC-62
  GI50: 22.9 µM (inactive)

## CC(=O)Oc1ccc(/C=C/C(=O)O[C@@H](C)[C@H](C)OC(=O)/C=C/c2ccc(OC(C)=O)c(OC(C)=O)c2)cc1OC(C)=O
A549
  GI50: 13.8 µM (inactive)
CAKI-1
  GI50: 27.3 µM (inactive)
DU-145
  GI50: 21.9 µM (inactive)
Hs-578T
  GI50: 11 µM (inactive)
LOX IMVI
  GI50: 6.61 µM (inactive)
MOLT-4
  GI50: 2.22 µM (inactive)
NCI-H23
  GI50: 6.5 µM (inactive)
NCI-H460
  GI50: 5.94 µM (inactive)
NCI-H522
  GI50: 6.37 µM (inactive)
OVCAR-5
  GI50: 21.2 µM (inactive)
SF-268
  GI50: 18.4 µM (inactive)
SF-295
  GI50: 11.2 µM (inactive)
SF-539
  GI50: > 100 µM (inactive)
SK-MEL-5
  GI50: 10.6 µM (inactive)
SNB-19
  GI50: 18.9 µM (inactive)
SR
  GI50: 5.77 µM (inactive)
SW-620
  GI50: 2.42 µM (inactive)
TK-10
  GI50: 21.2 µM (inactive)
UACC-62
  GI50: 8.41 µM (inactive)

## OCCCNCC(O)c1ccc(OCc2ccccc2)c(OCc2ccccc2)c1 (centres undefined)
A549
  GI50: 11.6 µM (inactive)
CAKI-1
  GI50: 17.6 µM (inactive)
DU-145
  GI50: 16.9 µM (inactive)
HT-29
  GI50: 8.24 µM (inactive)
Hs-578T
  GI50: 13.6 µM (inactive)
LOX IMVI
  GI50: 6.35 µM (inactive)
MOLT-4
  GI50: 8.3 µM (inactive)
NCI-H23
  GI50: 17.5 µM (inactive)
NCI-H460
  GI50: 7.52 µM (inactive)
NCI-H522
  GI50: 14.1 µM (inactive)
OVCAR-5
  GI50: 15.7 µM (inactive)
SF-268
  GI50: 15.3 µM (inactive)
SF-295
  GI50: 10.4 µM (inactive)
SF-539
  GI50: 10.9 µM (inactive)
SK-MEL-5
  GI50: 7.03 µM (inactive)
SNB-19
  GI50: 17.3 µM (inactive)
SR
  GI50: 10.9 µM (inactive)
SW-620
  GI50: 8.34 µM (inactive)
TK-10
  GI50: 7.91 µM (inactive)
UACC-62
  GI50: 20 µM (inactive)
